The target of one test is T1, 5-HT4 receptor (Cavia porcellus, UniProt O70528).
T1 construct: striatum was isolated which was cryopreserved at −80° C. until use; from tissue; host or cells: guinea pig (Slc-Hartley) striatum membranes
Briefly: Test Example 3: Guinea pig 5-HT4 receptor binding assay, [3H]-GR113808, striatum membranes (Table 98). A digest of the protocol: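 Striatal membranes from Slc-Hartley guinea pigs were incubated with 0.1 nM [3H]-GR113808 and test compounds in 50 mM Hepes pH 7.4 at 37° C for 30 min; nonspecific binding was defined with 30 μM serotonin. Bound radioactivity was collected by filtration, and IC50 was derived from inhibition of specific binding.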

In a further test the target is T2, human 5-HT4b receptor (Homo sapiens, UniProt Q13639).
T2 construct: expressed in transfected cells; host or cells: CHO cells (G418 selection)
T2 sequence (Q13639 whole entry): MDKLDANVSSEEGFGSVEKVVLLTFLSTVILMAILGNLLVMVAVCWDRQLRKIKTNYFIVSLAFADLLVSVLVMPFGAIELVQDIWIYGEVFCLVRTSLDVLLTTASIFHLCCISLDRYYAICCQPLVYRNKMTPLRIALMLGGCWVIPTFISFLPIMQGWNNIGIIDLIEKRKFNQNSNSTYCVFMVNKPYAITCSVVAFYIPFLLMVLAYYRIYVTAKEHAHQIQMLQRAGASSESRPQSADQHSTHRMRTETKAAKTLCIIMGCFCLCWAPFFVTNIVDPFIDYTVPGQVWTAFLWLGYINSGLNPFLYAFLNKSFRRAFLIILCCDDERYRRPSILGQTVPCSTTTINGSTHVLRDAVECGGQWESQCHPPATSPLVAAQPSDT
Briefly: Test Example 4: Serotonin 4 (5-HT4) receptor agonist activity assay, cAMP HTRF in CHO cells (Table 100). It is filed as cell-based. The conditions noted are these: mean value; for Emax: CHO, 0.25 h, intrinsic activity, maximal activity of 5-HT defined as 100%, read-out: IA (%); for EC50: concentration showing 50% of IA. As to the method:
The cAMP measurement test used herein was carried out by using CISBIO HTRF (trademark) cAMP Hirange kit according to the manufacturer's instructions attached therewith.
CHO cells expressing human 5-HT4b receptor were incubated in Medium 1 [DMEM/1% NEAA, 1% penicillin/streptomycin (P/S), 0.2 mg/mL GENETICIN (G418), 10% FBS] at 37° C. under 5% CO2 condition. Then, the cells were put into Medium 2 (DMEM/10000 cut FBS, G-418, P/S, NEAA) for 1 to 2 hours, and collected by treating with trypsin containing EDTA. The collected cells were suspended in Assay Buffer 1 [100 mM Hanks/HEPES buffer (pH 7.4)], the suspended cells were mixed with the testing compound on 384-well plates, and the cells were incubated at 31° C. for 15 minutes. To the cells were added cAMP-cryptate solution and cAMP-d2 solution, and they were incubated at room temperature for 1 hour. Then, time-resolved fluorescence was measured by En Vision (excitation wavelength: 330 nm, fluorescence wavelength: 620/665 nm).
An intrinsic activity of the compound [IA (%)] and a concentration showing 50% of IA [EC50 (nM)] were calculated from the obtained results. In particular, the intrinsic activity (IA) was calculated on the basis of the maximal activity of 5-HT (measured from 10^−11 M to 10^−7 M) defined as 100%.
In the following table, the compounds used in the test are shown in numbers which correspond to the Example numbers above where the preparations of the compounds are described.
Background: Time-resolved FRET reads energy transfer from a long-lived donor to a nearby acceptor.

Where [1] appears, read: Guinea pig 5-HT4 receptor binding assay, [3H]-GR113808, striatum membranes, mean value of each group, read-out: IC50.

Among the data in US20140057895A1, “INDAZOLE- AND PYRROLOPYRIDINE-DERIVATIVE AND PHARMACEUTICAL USE THEREOF” (priority 2011, published 2014) are IC50, Emax and EC50 values, retold here.

Structures can show the parent of a compound that is named as a salt. Where two headings read alike, the source gives them in different places.

T1 sequence (O70528 whole entry): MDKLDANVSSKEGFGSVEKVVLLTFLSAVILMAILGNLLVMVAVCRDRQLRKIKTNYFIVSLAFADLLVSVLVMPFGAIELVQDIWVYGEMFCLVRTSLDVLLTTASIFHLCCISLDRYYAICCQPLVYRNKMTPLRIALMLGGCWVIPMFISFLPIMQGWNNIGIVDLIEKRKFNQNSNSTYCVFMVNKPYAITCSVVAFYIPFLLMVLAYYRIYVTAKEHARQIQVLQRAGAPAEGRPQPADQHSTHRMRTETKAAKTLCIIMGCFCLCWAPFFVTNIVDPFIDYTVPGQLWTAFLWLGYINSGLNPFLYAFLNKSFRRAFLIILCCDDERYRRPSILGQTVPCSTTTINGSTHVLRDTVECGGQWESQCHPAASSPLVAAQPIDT

Take `CCc1nn(-c2noc(C3CCN(CC4CN(C(=O)OC)C4)CC3)n2)c2c(F)c(F)ccc12` [Example 470, methyl 3-({4-[3-(3-ethyl-6,7-difluoro-1H-indazol-1-yl)-1,2,4-oxadiazol-5-yl]piperidin-1-yl}methyl)azetidine-1-carboxylate trifluoroacetate]: at 5-HT4 receptor (setting [1]), the IC50 (as a rule, the concentration that inhibits the measured activity by half) amounted to 30 nM. Moreover, at human 5-HT4b receptor, the Emax was found to be 70.4% and a half-maximal effect (EC50) was put at 13.4 nM.

Turning to `CC(=O)N1CC(CN2CCC(c3nc(-n4nc(C(C)C)c5ccc(F)c(F)c54)no3)CC2)C1` [Example 472, 1-{3-[(4-{3-[6,7-difluoro-3-(propan-2-yl)-1H-indazol-1-yl]-1,2,4-oxadiazol-5-yl}piperidin-1-yl)methyl]azetidin-1-yl}ethanone trifluoroacetate], at 5-HT4 receptor (setting [1]), the IC50 is 29.7 nM. In addition, on human 5-HT4b receptor, the Emax was 54.3% and the midpoint of the response, the EC50, lay at 47.2 nM.

`COCC(=O)N1CC(CN2CCC(c3nc(-n4nc(C(C)C)c5ccc(F)c(F)c54)no3)CC2)C1` [Example 473, 1-{3-[(4-{3-[6,7-difluoro-3-(propan-2-yl)-1H-indazol-1-yl]-1,2,4-oxadiazol-5-yl}piperidin-1-yl)methyl]azetidin-1-yl}-2-methoxyethanone trifluoroacetate]: at 5-HT4 receptor (setting [1]), the IC50 came out at 23.8 nM. Moreover, at human 5-HT4b receptor, the Emax was determined as 58.5% and the concentration for a half-maximal effect (EC50) (usually the concentration giving half of the maximal effect) was 23.1 nM.

For the compound `COC(=O)N1CC(CN2CCC(c3nc(-n4nc(C(C)C)c5ccc(F)c(F)c54)no3)CC2)C1` [Example 474, methyl 3-[(4-{3-[6,7-difluoro-3-(propan-2-yl)-1H-indazol-1-yl]-1,2,4-oxadiazol-5-yl}piperidin-1-yl)methyl]azetidine-1-carboxylate trifluoroacetate], the IC50 on 5-HT4 receptor (setting [1]) was 20.2 nM. On human 5-HT4b receptor, the Emax was 89.4% and the EC50 came to 34.4 nM.

Take `CC(=O)N1CCC(CN2CCC(c3nc(-n4nc(C(C)C)c5ccccc54)no3)CC2)CC1` [Example 475, 1-{4-[(4-{3-[3-(propan-2-yl)-1H-indazol-1-yl]-1,2,4-oxadiazol-5-yl}piperidin-1-yl)methyl]piperidin-1-yl}ethanone trifluoroacetate]: the IC50 on 5-HT4 receptor (setting [1]) is 67.9 nM. At human 5-HT4b receptor, the Emax worked out at 61% and it took 13.6 nM to reach a half-maximal effect (EC50).

As for `CCc1nn(-c2noc(C3CCN(CC4CCN(C(=O)COC)CC4)CC3)n2)c2c(F)c(F)ccc12` [Example 477, 1-[4-({4-[3-(3-ethyl-6,7-difluoro-1H-indazol-1-yl)-1,2,4-oxadiazol-5-yl]piperidin-1-yl}methyl)piperidin-1-yl]-2-methoxyethanone trifluoroacetate], on 5-HT4 receptor (setting [1]), the IC50 is less than 20 nM. Moreover, at human 5-HT4b receptor, the Emax was 65.5% and the EC50 worked out at 11.4 nM.

On to `CCc1nn(-c2noc(C3CCN(CC4CCN(C(C)=O)CC4)CC3)n2)c2c(F)c(F)ccc12` [Example 478, 1-[4-({4-[3-(3-ethyl-6,7-difluoro-1H-indazol-1-yl)-1,2,4-oxadiazol-5-yl]piperidin-1-yl}methyl)piperidin-1-yl]ethanone trifluoroacetate], for which the concentration for half-maximal inhibition (IC50) on 5-HT4 receptor (setting [1]) is less than 20 nM. Further, at human 5-HT4b receptor, the Emax is 68.7% and a half-maximal effect (EC50) was put at 32.4 nM.

Consider `COCC(=O)N1CCC(CN2CCC(c3nc(-n4nc(C(C)C)c5ccc(F)c(F)c54)no3)CC2)CC1` [Example 481, 1-{4-[(4-{3-[6,7-difluoro-3-(propan-2-yl)-1H-indazol-1-yl]-1,2,4-oxadiazol-5-yl}piperidin-1-yl)methyl]piperidin-1-yl}-2-methoxyethanone trifluoroacetate], for which, on 5-HT4 receptor (setting [1]), the IC50 is less than 20 nM. On human 5-HT4b receptor, the Emax was found to be 73.8% and the response was half-maximal at 7.1 nM (EC50).

Turning to `COC(=O)N1CCC(CN2CCC(c3nc(-n4nc(C(C)C)c5ccc(F)c(F)c54)no3)CC2)CC1` [Example 482, methyl 4-[(4-{3-[6,7-difluoro-3-(propan-2-yl)-1H-indazol-1-yl]-1,2,4-oxadiazol-5-yl}piperidin-1-yl)methyl]piperidine-1-carboxylate trifluoroacetate], the IC50 on 5-HT4 receptor (setting [1]) worked out at 23.6 nM. Moreover, on human 5-HT4b receptor, the Emax was 70.5% and the EC50 was found to be 8.9 nM.

With `CC(=O)N1CCC(N2CC[C@@H](Cc3nc(-n4nc(C(C)C)c5cccc(F)c54)no3)C2)CC1` [Example 507, 1-{4-[(3S)-3-({3-[7-fluoro-3-(propan-2-yl)-1H-indazol-1-yl]-1,2,4-oxadiazol-5-yl}methyl)pyrrolidin-1-yl]piperidin-1-yl}ethanone], the concentration for half-maximal inhibition (IC50) at 5-HT4 receptor (setting [1]) is less than 20 nM. Besides, on human 5-HT4b receptor, the Emax is 84% and the concentration giving a half-maximal response (EC50) turned out to be 3.9 nM.

Turning to `CC(C)c1nn(-c2noc(C3CCN(C4CCN(C(=O)CO)CC4)CC3)n2)c2ccccc12` [Example 519], the IC50 at 5-HT4 receptor (setting [1]) came out at 27.1 nM. For the same compound, on human 5-HT4b receptor, the Emax worked out at 81.1% and the concentration for a half-maximal effect (EC50) stood at 33.5 nM.

Regarding `CC(C)c1nn(-c2noc(C3CCN(C4CCN(C(=O)CO)CC4)CC3)n2)c2c(F)c(F)ccc12` [Example 520, 1-(4-{3-[6,7-difluoro-3-(propan-2-yl)-1H-indazol-1-yl]-1,2,4-oxadiazol-5-yl}-1,4′-bipiperidin-1′-yl)-2-hydroxyethanone], on 5-HT4 receptor (setting [1]), the IC50 is less than 20 nM. Also, on human 5-HT4b receptor, the Emax was 82.9% and the EC50 worked out at 17.6 nM.

For `CC(C)c1nn(-c2noc(C3CCN(C[C@H]4CCCN4C(=O)CO)CC3)n2)c2c(F)cccc12` [Example 529, 1-{(2R)-2-[(4-{3-[7-fluoro-3-(propan-2-yl)-1H-indazol-1-yl]-1,2,4-oxadiazol-5-yl}piperidin-1-yl)methyl]pyrrolidin-1-yl}-2-hydroxyethanone hydrochloride], at 5-HT4 receptor (setting [1]), the IC50 is less than 20 nM. Besides, on human 5-HT4b receptor, the Emax came out at 95.5% and the EC50 is 1.2 nM.

Consider `CC(C)c1nn(-c2noc(C3CCN(C4CCN(C(=O)CO)CC4C)CC3)n2)c2c(F)cccc12` (stereo not drawn) [Example 530, 1-(4-{3-[7-fluoro-3-(propan-2-yl)-1H-indazol-1-yl]-1,2,4-oxadiazol-5-yl}-3′-methyl-1,4′-bipiperidin-1′-yl)-2-hydroxyethanone], for which, on 5-HT4 receptor (setting [1]), the IC50 was less than 20 nM. In addition, on human 5-HT4b receptor, the Emax came out at 97% and the EC50 is 3.1 nM.

Compound `CC(C)c1nn(-c2noc(C3CCN([C@H]4C[C@H]5CC[C@@H](C4)N5C(=O)CO)CC3)n2)c2c(F)cccc12` [Example 532, 1-[(3-endo)-3-(4-{3-[7-fluoro-3-(propan-2-yl)-1H-indazol-1-yl]-1,2,4-oxadiazol-5-yl}piperidin-1-yl)-8-azabicyclo[3.2.1]oct-8-yl]-2-hydroxyethanone] returned an IC50 on 5-HT4 receptor of less than 20 nM. Further, at human 5-HT4b receptor, the Emax worked out at 99% and it took 5 nM to reach a half-maximal effect (EC50).

`CC(C)c1nn(-c2noc(C3CCN([C@@H]4C[C@H]5CC[C@@H](C4)N5C(=O)CO)CC3)n2)c2c(F)cccc12` [Example 533, 1-[(3-exo)-3-(4-{3-[7-fluoro-3-(propan-2-yl)-1H-indazol-1-yl]-1,2,4-oxadiazol-5-yl}piperidin-1-yl)-8-azabicyclo[3.2.1]oct-8-yl]-2-hydroxyethanone] came in with an IC50 at 5-HT4 receptor of less than 20 nM. At human 5-HT4b receptor, the Emax is 102% and a half-maximal response (EC50) required 3.8 nM.

Consider `CC(C)c1nn(-c2noc(C3(O)CCN(C4CCN(C(=O)CO)CC4)CC3)n2)c2c(F)cccc12` [Example 551, 1-(4-{3-[7-fluoro-3-(propan-2-yl)-1H-indazol-1-yl]-1,2,4-oxadiazol-5-yl}-4-hydroxy-1,4′-bipiperidin-1′-yl)-2-hydroxyethanone], for which, at 5-HT4 receptor, the IC50 came out at 81.9 nM. Moreover, at human 5-HT4b receptor, the Emax came out at 70.4% and it took 18.5 nM to reach a half-maximal effect (EC50).

For `CCc1nn(-c2noc(C3CCN(C4CCN(C(=O)CO)CC4)CC3)n2)c2c(F)cccc12` [compound 244, hydrochloride], the half-maximal inhibitory concentration (IC50) on 5-HT4 receptor (setting [1]) is less than 20 nM. Besides, on human 5-HT4b receptor, the Emax came to 63.5% and the 50% effective concentration (EC50) is 3.9 nM.

With `CCc1nn(-c2noc(C3CCN(CC4CCN(C(=O)CO)CC4)CC3)n2)c2c(F)cccc12` [compound 246, 1-[4-({4-[3-(3-ethyl-7-fluoro-1H-indazol-1-yl)-1,2,4-oxadiazol-5-yl]piperidin-1-yl}methyl)piperidin-1-yl]-2-hydroxyethanone], at 5-HT4 receptor (setting [1]), the IC50 was less than 20 nM. At human 5-HT4b receptor, the Emax stood at 56.6% and it took 21.1 nM to reach a half-maximal effect (EC50).

Turning to `CCc1nn(-c2noc(C3CCN(CC4CN(C(=O)CO)C4)CC3)n2)c2c(F)cccc12` [compound 250, 1-[3-({4-[3-(3-ethyl-7-fluoro-1H-indazol-1-yl)-1,2,4-oxadiazol-5-yl]piperidin-1-yl}methyl)azetidin-1-yl]-2-hydroxyethanone], at 5-HT4 receptor (setting [1]), the IC50 was less than 20 nM. For the same compound, on human 5-HT4b receptor, the Emax came to 79.7% and the 50% effective concentration (EC50) was 3.5 nM.
